Assay [1] is described as follows: blockers of HIV-1 ZM109 envelope-driven cell-cell fusion – HeLa effector, CEM target cells, luciferase, cherry-pick, dose response (AID 652058).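 Note: luciferase signal from HIV-1 Env mediated cell-cell fusion of effector and target cells.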 The class given is functional, cell-based.
A short description of assay [2]: blockers of HIV-1 envelope-mediated cell-cell fusion – cherry-pick, dose response (AID 652057). The class given is functional, cell-based.
Assay [3] is described as follows: loss of viability in HepG2 cells – cell-based, CellTiter-Glo, cherry-picked, cytotoxicity control for Shn3 inhibitor project, dose response (AID 624134). Format: functional. A general note: Cellular ATP, detected with luciferase, serves as a proxy for viable cell number.
Assay [4] in a line: off-target signal loss in HeLa-CEM21 co-culture – HeLa F-luc CTL cells, cherry-picked, counter-screen for HIV-1 Env fusion inhibitor project, dose response (AID 652040).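 Note: potency for signal decrease marking cytotoxic or nonspecific inhibition.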 Format: functional, cell-based.
The next assay deals with T1, Cytochrome P450 1A2 (Homo sapiens, UniProt P05177).
T1 sequence (P05177 whole entry): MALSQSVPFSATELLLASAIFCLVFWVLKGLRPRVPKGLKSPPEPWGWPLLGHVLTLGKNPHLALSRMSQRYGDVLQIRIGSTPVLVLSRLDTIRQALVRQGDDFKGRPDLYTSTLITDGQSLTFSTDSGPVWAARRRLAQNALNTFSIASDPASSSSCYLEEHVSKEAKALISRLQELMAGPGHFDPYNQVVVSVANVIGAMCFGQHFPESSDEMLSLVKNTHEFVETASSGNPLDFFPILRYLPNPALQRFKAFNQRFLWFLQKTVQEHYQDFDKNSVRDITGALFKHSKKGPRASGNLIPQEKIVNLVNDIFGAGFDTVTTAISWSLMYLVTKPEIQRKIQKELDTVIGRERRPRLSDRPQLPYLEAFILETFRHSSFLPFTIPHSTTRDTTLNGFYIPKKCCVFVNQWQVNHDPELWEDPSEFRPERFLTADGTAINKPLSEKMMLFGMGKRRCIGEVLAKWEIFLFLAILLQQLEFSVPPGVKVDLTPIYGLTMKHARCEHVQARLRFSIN

A short description of assay [5]: viability loss in CEM21 cells – cell-based, CellTiter-Glo luminescence, cherry-picked, cytotoxicity control for viral fusion inhibitor project, dose response (AID 652042).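 Note: potency for signal decrease meaning cytotoxicity.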 The class given is functional.
Assay [6] can be described thus: non-specific 3'UTR reporter inhibition in Clone20-Shn3RL – cell-based, Renilla luciferase, cherry-picked, counter-screen for Shn3 inhibitor project, dose response (AID 624133). Format: functional.
The nature of assay [7]: reduction of Shn3 3'UTR-driven luciferase in osteoblasts – cell-based, Clone20 osteoblasts, firefly luciferase, cherry-picked, dose response (AID 624132).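 Note: firefly luciferase luminescence from reporter carrying the Shn3 3'UTR in osteoblasts.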 Format: functional.
Assay [8] in a line: HIV-1 AD8 envelope cell-cell fusion blockers – cherry-pick, dose response (AID 652062).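 Note: luciferase signal from cell-cell fusion driven by HIV-1 clade B AD8 Env; potency is for inhibitors of fusion seen as a drop in luminescence.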 The class given is functional, cell-based.
Assay [9] has as its system HEK293. The assay can be described thus: cells. To be noted: Homo sapiens.
Assay [10] relates to HEK293. The assay can be described thus: cells. To be noted: Homo sapiens. This is another data set of the same source.
Assay [11] concerns Streptococcus sp. 'group A'. Briefly: Streptococcus pyogenes SK(-)GAS viability under kanamycin – luminescence, BacTiterGlo, confirmation, counter-screen for streptokinase expression inhibitor project, dose response (AID 1900). Format: functional, organism-based. (In general: The purpose of a counterscreen is to sort out artefacts and off-target activity.)
The next assay relates to Streptococcus. Briefly: GAS UMAA2166 growth inhibition – luminescence, BacTiterGlo, counter-screen for streptokinase expression inhibitor project, dose response (AID 1915).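 Note: potency for reduction of bacterial viability or growth.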 The class given is functional, organism-based.
Another assay addresses T2, Streptokinase A (Streptococcus pyogenes serotype M1, UniProt P10520).
T2 sequence (P10520 whole entry): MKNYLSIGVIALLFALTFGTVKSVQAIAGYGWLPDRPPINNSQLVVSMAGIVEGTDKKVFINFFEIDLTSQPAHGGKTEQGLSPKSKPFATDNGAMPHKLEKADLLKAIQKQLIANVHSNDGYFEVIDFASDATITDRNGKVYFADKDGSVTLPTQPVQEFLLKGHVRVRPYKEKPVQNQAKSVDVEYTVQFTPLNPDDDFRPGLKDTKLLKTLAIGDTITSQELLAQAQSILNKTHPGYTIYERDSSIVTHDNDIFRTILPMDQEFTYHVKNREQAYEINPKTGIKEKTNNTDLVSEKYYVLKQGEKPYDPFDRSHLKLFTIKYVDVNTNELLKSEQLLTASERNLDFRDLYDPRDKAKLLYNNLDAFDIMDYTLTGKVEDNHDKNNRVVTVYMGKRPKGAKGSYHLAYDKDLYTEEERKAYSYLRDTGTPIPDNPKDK
The assay can be described thus: viability-normalized secreted streptokinase activity reduction – plasminogen activation absorbance, OD405, dose response (AID 1914).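 Note: secreted streptokinase activity via plasminogen activation per viability signal from cell pellet.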 The class given is functional, Streptococcus pyogenes M1 GAS.

Assay [12] has as its target T3, Long-chain-fatty-acid--AMP ligase FadD28 (Mycobacterium tuberculosis, UniProt P9WQ59).
T3 sequence (P9WQ59 whole entry): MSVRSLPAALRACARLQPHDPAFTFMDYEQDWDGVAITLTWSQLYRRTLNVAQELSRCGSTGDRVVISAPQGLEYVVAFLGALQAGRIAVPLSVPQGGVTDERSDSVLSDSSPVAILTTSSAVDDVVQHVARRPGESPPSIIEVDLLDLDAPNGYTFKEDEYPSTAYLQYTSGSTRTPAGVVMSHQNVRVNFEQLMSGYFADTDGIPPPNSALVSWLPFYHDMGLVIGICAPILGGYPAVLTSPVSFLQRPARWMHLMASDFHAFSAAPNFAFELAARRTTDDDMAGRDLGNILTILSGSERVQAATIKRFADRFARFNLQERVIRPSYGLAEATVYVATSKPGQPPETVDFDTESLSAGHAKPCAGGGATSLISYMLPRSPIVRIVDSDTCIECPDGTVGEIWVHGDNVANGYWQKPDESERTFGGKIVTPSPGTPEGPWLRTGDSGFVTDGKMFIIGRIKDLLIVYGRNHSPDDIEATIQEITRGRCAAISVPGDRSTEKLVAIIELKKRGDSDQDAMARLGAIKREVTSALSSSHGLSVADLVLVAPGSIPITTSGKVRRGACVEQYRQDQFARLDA
The assay can be described thus: Fluorescence polarization aasay to screen for inhibitors that compete for the binding of FadD28 to a bisubstrate Measured in Biochemical System Using Plate Reader - 2147-01_Inhibitor_Dose_CherryPick_Activity. Format: functional, Mycobacterium tuberculosis H37Rv. On the technique in general: In fluorescence polarisation assays a small probe gives low polarisation when free and higher when bound to something large.

Assay [13] in a line: viability loss in HeLa cells – cytotoxicity control for MgcRacGAP inhibitor project, dose response (AID 624300). The class given is functional.
The target in assay [14] is T4, Rac GTPase-activating protein 1 (Homo sapiens, UniProt Q9H0H5).
T4 sequence (Q9H0H5 whole entry): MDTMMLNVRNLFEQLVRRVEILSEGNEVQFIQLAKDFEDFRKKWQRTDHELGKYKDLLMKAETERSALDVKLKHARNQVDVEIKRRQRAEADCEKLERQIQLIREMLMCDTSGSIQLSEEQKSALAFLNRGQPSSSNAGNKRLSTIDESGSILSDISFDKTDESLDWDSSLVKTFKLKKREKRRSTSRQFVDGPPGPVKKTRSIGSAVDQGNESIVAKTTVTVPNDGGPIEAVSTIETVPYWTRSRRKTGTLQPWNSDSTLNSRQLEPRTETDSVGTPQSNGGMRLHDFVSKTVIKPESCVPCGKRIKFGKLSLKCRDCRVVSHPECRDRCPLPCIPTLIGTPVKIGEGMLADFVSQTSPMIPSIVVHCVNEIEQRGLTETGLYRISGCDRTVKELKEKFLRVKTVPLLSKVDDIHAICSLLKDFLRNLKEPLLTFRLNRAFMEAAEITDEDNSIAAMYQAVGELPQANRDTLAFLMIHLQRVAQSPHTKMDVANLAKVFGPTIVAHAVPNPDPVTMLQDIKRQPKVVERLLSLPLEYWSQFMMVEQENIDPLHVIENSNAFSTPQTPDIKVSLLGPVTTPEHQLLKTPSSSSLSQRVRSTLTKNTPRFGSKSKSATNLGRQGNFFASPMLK
The assay can be described thus: blockers of MgcRacGAP-driven Rac1 GTP hydrolysis – biochemical, ADP Hunter fluorescence, primary and confirmatory, confirmation (AID 624330). Format: functional.

Activity calls are given as the source filed them.

One may read the AC50 as the concentration at which the activity in the assay is half-maximal. Take `O=C(Nc1ccc(Oc2ccccc2)cc1)C1CCN(c2c3c(nc4ncnn24)CCC3)CC1`: the AC50 is 9.59 µM (active) in assay [1]; 3.83 µM (active) in assay [2]; 7.3 µM (active) in assay [3]; > 32 µM (inactive) in assay [4]; 15.8 µM (inconclusive) at Cytochrome P450 1A2; 42.7 µM (active) in assay [5]. Moreover, the AC50 in assay [6] was 10.5 µM (active); in [7], 5.64 µM (active); in assay [8], 4.29 µM (active).

The EC50 is the concentration giving half of the maximal effect. For the compound `CCC(C)(C)NC(=O)C(NS(=O)(=O)c1cccs1)c1ccccc1` (stereo unspecified), the AC50 is 4.71 µM (active) in assay [1], 4.25 µM (active) in assay [2], 4.24 µM (active) in [4] and 5.84 µM (active) in [8]. The EC50 in the assay with HEK293 [9] and with HEK293 [10] was > 59.6 µM (inactive) in each case.

For `Cc1cccc(NC(=O)c2cc3n(n2)C(C(F)(F)F)CC(c2ccc4c(c2)OCO4)N3)c1` (stereo unspecified), the half-maximal activity concentration (AC50) is 7.75 µM (active) in [1]; 7.49 µM (active) in [2]; 4.41 µM (active) in assay [4]; 61 µM (active) in assay [5]; 17 µM (active) in [8]. In addition, the values for the EC50 (in [11]; in the assay with Streptococcus; on Streptokinase A) were 12.9 µM (active), 139 µM (active) and 28.7 µM (active), respectively.

A word on the CC50: it is the concentration at which the toxic effect on the cells reaches its halfway point. The IC50 is the concentration that inhibits the measured activity by half. Regarding `COc1cc(/C=N/NC(=O)CN(Cc2ccccc2)S(=O)(=O)c2ccc3c(c2)OCCO3)ccc1O`, the AC50 in [12] is > 100 µM (inactive). Also, in assay [13], the CC50 was 100 µM (active). The IC50 in assay [14] is 74.6 µM (active).

(Values after ChEMBL document CHEMBL1201862, “PubChem BioAssay data set” (2004).)
